Reference: patent US20080242688A1, “Method 741” (ASTRAZENECA AB, priority 2007, published 2008)
“And” between values parts separate entries of the source, which are not always exact repeats. Identical values can stand only once. Like-named read-outs stand apart in the source and are kept apart here.

Assays:
[1] = Multiple dose PK/TK, dog; format: in vivo; parameters: AUC/dose: unit not given beside the values; details: 0295AD, capsules fed; for AUC / Cmax / Tmax / AUC at 7 day / Cmax at 7 day / Tmax at 7 day / AUC at 35 day / Cmax at 35 day / Tmax at 35 day: Beagle, dog, in vivo, po
Description: (§1) This section provides a summary of the pharmacokinetic and metabolism properties of AZD0328 derived from in vivo studies. […] The derived PK/TK parameters from these studies are presented in Table 4 for single dose studies (DMR4, 0619LR, 20030191PCR, DMO16, DMB10, DMW12, 50190, 0190DD and 03.330/1), and are presented in Table 5 multiple dose PK/TK studies (DMR4, 0612AR, DMB15, 50190, 0190DD and 0295AD).

[2] = Single dose PK/TK, ferret; details: in vivo
Description: as §1

[3] = female, 8.65 mg/kg, dog 3F, 8.65 mg/kg (40 μmol/kg) split in two 6 h apart, day 7
[4] = female, 8.65 mg/kg, dog 3F, 8.65 mg/kg (40 μmol/kg) split in two 6 h apart, day 35
[5] = female, 17.3 mg/kg, dog 3F, 17.3 mg/kg (80 μmol/kg) split in two 6 h apart, day 7
[6] = female, 17.3 mg/kg, dog 3F, 17.3 mg/kg (80 μmol/kg) split in two 6 h apart, day 35
[7] = female, 26 mg/kg, dog 6F, 26.0 mg/kg (120 μmol/kg) split into 17.3 and 8.7 mg/kg 6 h apart, day 35
[8] = female, 34.6 mg/kg, dog 6F, 34.6 mg/kg (160 μmol/kg) split in two 6 h apart, day 7
[9] = male, 8.65 mg/kg, dog 3M, 8.65 mg/kg (40 μmol/kg) split in two 6 h apart, day 7
[10] = male, 8.65 mg/kg, dog 3M, 8.65 mg/kg (40 μmol/kg) split in two 6 h apart, day 35
[11] = male, 17.3 mg/kg, dog 3M, 17.3 mg/kg (80 μmol/kg) split in two 6 h apart, day 7
[12] = male, 17.3 mg/kg, dog 3M, 17.3 mg/kg (80 μmol/kg) split in two 6 h apart, day 35
[13] = male, 26 mg/kg, dog 6M, 26.0 mg/kg (120 μmol/kg) split into 17.3 and 8.7 mg/kg 6 h apart, day 35
[14] = male, 34.6 mg/kg, dog 6M, 34.6 mg/kg (160 μmol/kg) split in two 6 h apart, day 7
[15] = male, ferret 4M, DMO16, single oral 10 mg/kg (46 μmol/kg)

c1cnc2c(c1)C[C@@]1(CN3CCC1CC3)O2 [AZD0328, (R)-Spiro[1-azabicyclo[2.2.2]octane-3,2′(3′H)-furo[2,3-b]pyridine]]
AUC/dose ([1]; dog 3M, 17.3 mg/kg (80 μmol/kg) split in two 6 h apart, day 35): 0.196 ± 0.008
AUC/dose ([1]; dog 6F, 26.0 mg/kg (120 μmol/kg) split into 17.3 and 8.7 mg/kg 6 h apart, day 35): 0.133 ± 0.036
AUC/dose ([1]; dog 6M, 26.0 mg/kg (120 μmol/kg) split into 17.3 and 8.7 mg/kg 6 h apart, day 35): 0.174 ± 0.029
AUC/dose ([1]; dog 6M, 34.6 mg/kg (160 μmol/kg) split in two 6 h apart, day 7): 0.152 ± 0.075
AUC [1, 3]: 981 ng·h/mL and 4.53 µM·h
Cmax [1, 3]: 302 ng/mL and 1.39 µM
Tmax [1, 3]: 1 to 7 h
AUC [1, 4]: 924 ng·h/mL and 4.27 µM·h
Cmax [1, 4]: 270 ng/mL and 1.25 µM
Tmax [1, 4]: 1 to 9 h
AUC at 7 day [1, 5]: 2130 ng·h/mL and 9.83 µM·h
Cmax at 7 day [1, 5]: 850 ng/mL and 3.93 µM
Tmax at 7 day [1, 5]: 0.5 to 6.5 h
AUC at 35 day [1, 6]: 2020 ng·h/mL and 9.33 µM·h
Cmax at 35 day [1, 6]: 439 ng/mL and 2.03 µM
Tmax at 35 day [1, 6]: 1 to 9 h
AUC [1, 7]: 3460 ng·h/mL and 16 µM·h
Cmax [1, 7]: 1190 ng/mL and 5.49 µM
Tmax [1, 7]: 1 to 8.5 h
AUC [1, 8]: 19.2 µM·h
AUC at 7 day [1, 8]: 4160 ± 1990 ng·h/mL
Cmax [1, 8]: 8.69 µM
Cmax at 7 day [1, 8]: 1880 ± 1060 ng/mL
Tmax at 7 day [1, 8]: 0.5 to 6.5 h
AUC at 7 day [1, 9]: 868 ng·h/mL and 4 µM·h
Cmax at 7 day [1, 9]: 286 ng/mL and 1.32 µM
Tmax at 7 day [1, 9]: 0.5 to 7 h
AUC at 35 day [1, 10]: 1250 ng·h/mL and 5.79 µM·h
Cmax at 35 day [1, 10]: 373 ng/mL and 1.73 µM
Tmax at 35 day [1, 10]: 8.5 to 9 h
AUC at 7 day [1, 11]: 1930 ng·h/mL and 8.92 µM·h
Cmax at 7 day [1, 11]: 619 ng/mL and 2.86 µM
Tmax at 7 day [1, 11]: 6.5 to 7 h
AUC at 35 day [1, 12]: 1690 ng·h/mL and 7.85 µM·h
Cmax at 35 day [1, 12]: 608 ng/mL and 2.81 µM
Tmax at 35 day [1, 12]: 1 to 9 h
AUC [1, 13]: 4530 ng·h/mL and 20.9 µM·h
Cmax [1, 13]: 8.16 µM
Tmax [1, 13]: 0.5 to 2 h
AUC [1, 14]: 5260 ng·h/mL and 24.3 µM·h
Cmax [1, 14]: 1910 ng/mL and 8.82 µM
Tmax [1, 14]: 0.5 to 7 h
half-life ([2]; ferret, read-out: elimination half-life): < 5 h
AUC [2, 15]: 4000 ng·h/mL and 18.3 µM·h
Cmax [2, 15]: 590 ng/mL and 2.73 µM
Tmax [2, 15]: 0.25 to 1 h
half-life ([2]; male, ferret 4M, DMO16, single oral 10 mg/kg (46 μmol/kg), read-out: T½ (converted)): 3.98 ± 1.66 h
